Source: patent US11384075B2, “Quinolinone compounds” (Janssen Pharmaceutica NV, priority 2017, dated 2022)
pIC50: −log10 of the molar value.

What was measured:
[1] = system: NIH/3T3 cells transfected with the same control vector; assay: NIH/3T3 mock cell proliferation assay (counter assay, general toxicity); assay type: cell-based; settings: Mus musculus, NIH3T3, 72 h, 72-hr incubation, CellTiter Glo, starting with 30 μM; counter assay for general toxicity; read-out: NIH/3T3 MOCK CTG (IC50)
How it was run: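 Control-vector NIH/3T3 cells, 30,000/well in DMEM with 10% FBS, exposed 72 h at 37 °C to compound (9 points, 3-fold from 30 μM, 0.3% DMSO). CellTiter-Glo luminescence normalized to survival %; IC50, pIC50 and Hill slope from concentration-response fit.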

[2] = molecular target: T1, human FGFR3 V555M enzyme (cytoplasmic domain carrying V555M mutation) (Homo sapiens, UniProt P22607, V555M); assay: FGFR3 V555M mobility shift assay (enzymatic assay); assay type: biochemical; settings: 30 μM ATP, 45 minutes at 30° C., Caliper EZ reader II
T1 construct: human FGFR3 V555M enzyme (cytoplasmic domain carrying V555M mutation, from Carna Biosciences); purchased Carna Biosciences
T1 sequence (P22607 397-806 V555M limits assumed): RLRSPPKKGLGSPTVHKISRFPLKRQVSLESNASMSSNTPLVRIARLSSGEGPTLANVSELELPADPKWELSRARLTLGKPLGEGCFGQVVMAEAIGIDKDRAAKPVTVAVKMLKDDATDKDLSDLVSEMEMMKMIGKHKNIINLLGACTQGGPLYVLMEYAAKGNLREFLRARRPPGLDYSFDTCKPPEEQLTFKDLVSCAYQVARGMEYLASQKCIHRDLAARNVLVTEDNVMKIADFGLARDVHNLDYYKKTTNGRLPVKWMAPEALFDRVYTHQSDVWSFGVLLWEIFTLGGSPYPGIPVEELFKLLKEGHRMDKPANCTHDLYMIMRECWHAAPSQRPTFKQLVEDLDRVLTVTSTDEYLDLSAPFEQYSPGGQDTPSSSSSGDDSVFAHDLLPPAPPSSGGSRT
How it was run: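 Cytoplasmic-domain FGFR3 V555M (0.04 ng/μL) with 30 μM ATP and 1 μM FL-peptide 30 in HEPES pH 7.4/MgCl2/Brij35/DTT, 1% DMSO, 45 min at 30 °C, EDTA-stopped. Mobility-shift read of substrate-product conversion; 10-point 4× dilution from 10 μM fitted for IC50/pIC50.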

[3] = system: NIH/3T3 cells overexpressing FGFR3 WT-TACC3 fusion protein; assay: NIH/3T3 FGFR3 WT-TACC3 cellular phospho-ERK assay (in vitro PD assay); assay type: cell-based; settings: Mus musculus, NIH3T3; 1-hr incubation, AlphaLISA SureFire Ultra p-ERK1/2 (Thr202/Tyr204); read-out: NIH/3T3 FGFR3 WT-TACC3 pERK (IC50)
Protocol: NIH/3T3 FGFR3 WT-TACC3 Cellular Phospho-ERK Assay (In Vitro PD Assay)
50 μL of cell suspension (NIH/3T3 cells overexpressing FGFR3 WT-TACC3 fusion protein) (total 10,000 cells per well in growth medium (DMEM containing 1% Glutamax, 10% FBS and 1% Pen/Strep)) was seeded in a 384-well plate. After overnight incubation at 37° C. and 5% CO2, 5.5 μL of growth medium containing 10× testing compound was added into cell cultures (10 dose points with 4× serial dilution, starting with 10 μM, 0.1% DMSO final). After 1-hr incubation at 37° C. and 5% CO2, the medium was depleted and AlphaLISA SureFire Ultra p-ERK1/2 (Thr202/Tyr204) Assay Kit (from PerkinElmer) was applied for phospho-ERK level detection according to the kit instructions. The RFUs (relative fluorescence units were measured on EnVision microplate reader (ex. 680 nm, em. 615 nm) and concentration-response curve was plotted using Prism to calculate IC50 (M), pIC50 (−log IC50) and HillSlope value.

pIC50 [2] | SMILES | pIC50 [1] | pIC50 [3]
9.03 | C[C@H](Nc1c(-c2nc3ccc(N4CCOCC4)c(F)c3[nH]2)c(=O)[nH]c2ccccc12)c1ccccn1 [Compound 24, (S)-3-(7-fluoro-6-morpholino-1H-benzo[d]imidazol-2-yl)-4-((1-(pyridin-2-yl)ethyl)-amino)quinolin-2(1H)-one] | 4.88 | 7.88
8.87 | C[C@@H]1CN(c2ccc3nc(-c4c(N[C@@H](C)c5ccccn5)c5ccccc5[nH]c4=O)[nH]c3c2)C[C@H](C)O1 [Compound 4, 3-(6-((2S,6R)-2,6-dimethylmorpholino)-1H-benzo[d]imidazol-2-yl)-4-(((S)-1-(pyridin-2-yl)ethyl)amino)quinolin-2(1H)-one] | 5.11 | 8.41
8.56 | C[C@@H]1CN(c2ccc3nc(-c4c(N[C@@H](C)c5ccccn5)c5ccccc5[nH]c4=O)[nH]c3c2)C[C@@H](C)O1 [Compound 21, 3-(6-((2R,6R)-2,6-dimethylmorpholino)-1H-benzo[d]imidazol-2-yl)-4-(((S)-1-(pyridin-2-yl)ethyl)amino)quinolin-2(1H)-one] | 4.87 | 8.08
9.67 | C[C@H](Nc1c(-c2nc3ccc(N4CCOCC4)cc3[nH]2)c(=O)[nH]c2ccccc12)c1ncccn1 [Compound 2, (S)-3-(6-morpholino-1H-benzo[d]imidazol-2-yl)-4-((1-(pyrimidin-2-yl)ethyl)amino)-quinolin-2(1H)-one] | 4.82 | 8.91
